Measurements taken from PubChem BioAssay AID1918947 (Molecular Pharmacology Branch, DTP, NCI, 2023).
“And” between values parts separate entries of the source, which are not always exact repeats. Equal entries are not always repeated.

Test system: A498 complex spheroid viability
Assay: Anticancer human tumor A498 cell line growth inhibition;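 also: spheroids exposed to agents for seven days before readout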;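 as to viability, T/C: 100% = DMSO vehicle-treated spheroids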
Details: for viability, T/C: stronger effect = lower value
Outline: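 Multicellular complex spheroids of tumor cells with human endothelial cells (HUVEC) and mesenchymal stem cells; the LSD1 inhibitor iadademstat was combined with standard-of-care or investigational agents. Top concentration at or near clinical Cmax, half-log dilutions; final DMSO ≤0.25%.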

[1] = curve of first compound, second compound 0.1 µM
[2] = curve of first compound, second compound 0.316 µM
[3] = curve of first compound, second compound 1 µM
[4] = curve of first compound, second compound 3.16 µM
[5] = curve of first compound, second compound 10 µM
[6] = second compound 0.1 µM, first compound 0.00949 µM
[7] = second compound 0.1 µM, first compound 0.03 µM
[8] = second compound 0.1 µM, first compound 0.0949 µM
[9] = second compound 0.1 µM, first compound 0.3 µM
[10] = second compound 0.316 µM, first compound 0.00949 µM
[11] = second compound 0.316 µM, first compound 0.03 µM
[12] = second compound 0.316 µM, first compound 0.0949 µM
[13] = second compound 0.316 µM, first compound 0.3 µM
[14] = second compound 1 µM, first compound 0.00949 µM
[15] = second compound 1 µM, first compound 0.03 µM
[16] = second compound 1 µM, first compound 0.0949 µM
[17] = second compound 1 µM, first compound 0.3 µM
[18] = second compound 3.16 µM, first compound 0.00949 µM
[19] = second compound 3.16 µM, first compound 0.03 µM
[20] = second compound 3.16 µM, first compound 0.0949 µM
[21] = second compound 3.16 µM, first compound 0.3 µM
[22] = second compound 10 µM, first compound 0.00949 µM
[23] = second compound 10 µM, first compound 0.03 µM
[24] = second compound 10 µM, first compound 0.0949 µM
[25] = second compound 10 µM, first compound 0.3 µM

Q: For `CC[C@@]1(O)C(=O)OCc2c1cc1n(c2=O)Cc2cc3c(CN(C)C)c(O)ccc3nc2-1`, which viability, T/C (compound 0.000316 µM) is on record?
A: Its viability, T/C is 106% and 95.2%.

Q: And the viability, T/C (compound 0.001 µM)?
A: The viability, T/C was 103% and 95.8%.

Q: What about the viability, T/C (compound 0.00316 µM) of the same compound?
A: Its viability, T/C is 86.4% and 82.6%.

Q: And the viability, T/C (compound 0.01 µM)?
A: The viability, T/C was 84.5% and 79.2%.

Q: What about the viability, T/C (compound 0.0316 µM) of the same compound?
A: Its viability, T/C is 62.7% and 56.4%.

Q: And the viability, T/C (compound 0.1 µM)?
A: The viability, T/C was 33.7% and 32.4%.

Q: And the IC50 (curve of compound)?
A: Its IC50 is 52.5 nM and 44.6 nM.

Q: With `Nc1ccn(C2OC(CO)C(O)C2(F)F)c(=O)n1` (centres undefined) + NC1CC1c1ccc(-c2cccc(O)c2)cc1 as the compound, how does the IC50 [1] read?
A: Its IC50 is < 0.949 nM.

Q: What about the IC50 [2] of the same compound?
A: The IC50 was < 0.949 nM.

Q: What about the IC50 [3] of the same compound?
A: Its IC50 is < 0.949 nM.

Q: And the IC50 [4]?
A: Its IC50 is < 0.949 nM.

Q: What about the IC50 [5] of the same compound?
A: The IC50 was < 0.949 nM.

Q: What about the viability, T/C (second compound 0.1 µM, first compound 0.000949 µM) of the same compound?
A: Its viability, T/C is 20.6%.

Q: And the viability, T/C (second compound 0.1 µM, first compound 0.003 µM)?
A: Its viability, T/C is 28.4%.

Q: And the viability, T/C [6]?
A: Its viability, T/C is 98.4%.

Q: And the viability, T/C [7]?
A: Its viability, T/C is 36.4%.

Q: And the viability, T/C [8]?
A: The viability, T/C was 35.8%.

Q: And the viability, T/C [9]?
A: Its viability, T/C is 31.5%.

Q: And the viability, T/C (second compound 0.316 µM, first compound 0.000949 µM)?
A: The viability, T/C was 22.6%.

Q: What about the viability, T/C (second compound 0.316 µM, first compound 0.003 µM) of the same compound?
A: Its viability, T/C is 28.6%.

Q: What about the viability, T/C [10] of the same compound?
A: The viability, T/C was 112%.

Q: And the viability, T/C [11]?
A: Its viability, T/C is 33.9%.

Q: And the viability, T/C [12]?
A: The viability, T/C was 35.3%.

Q: And the viability, T/C [13]?
A: Its viability, T/C is 32.3%.

Q: What about the viability, T/C (second compound 1 µM, first compound 0.000949 µM) of the same compound?
A: Its viability, T/C is 22.5%.

Q: And the viability, T/C (second compound 1 µM, first compound 0.003 µM)?
A: The viability, T/C was 26.8%.

Q: What about the viability, T/C [14] of the same compound?
A: Its viability, T/C is 105%.

Q: And the viability, T/C [15]?
A: The viability, T/C was 35.5%.

Q: And the viability, T/C [16]?
A: The viability, T/C was 29.3%.

Q: What about the viability, T/C [17] of the same compound?
A: Its viability, T/C is 30.6%.

Q: And the viability, T/C (second compound 3.16 µM, first compound 0.000949 µM)?
A: Its viability, T/C is 22.6%.

Q: What about the viability, T/C (second compound 3.16 µM, first compound 0.003 µM) of the same compound?
A: The viability, T/C was 28.3%.

Q: And the viability, T/C [18]?
A: The viability, T/C was 94.6%.

Q: What about the viability, T/C [19] of the same compound?
A: The viability, T/C was 36.1%.

Q: What about the viability, T/C [20] of the same compound?
A: Its viability, T/C is 30.3%.

Q: What about the viability, T/C [21] of the same compound?
A: Its viability, T/C is 28.1%.

Q: What about the viability, T/C (second compound 10 µM, first compound 0.000949 µM) of the same compound?
A: The viability, T/C was 23.5%.

Q: What about the viability, T/C (second compound 10 µM, first compound 0.003 µM) of the same compound?
A: The viability, T/C was 28.2%.

Q: And the viability, T/C [22]?
A: Its viability, T/C is 93.5%.

Q: What about the viability, T/C [23] of the same compound?
A: Its viability, T/C is 40.7%.

Q: And the viability, T/C [24]?
A: Its viability, T/C is 32.9%.

Q: And the viability, T/C [25]?
A: The viability, T/C was 29.4%.

Q: Which viability, T/C (compound 0.0316 µM) does the source give for `CC1COCCN1c1cc(C2(S(C)(=N)=O)CC2)nc(-c2ccnc3[nH]ccc23)n1` (centres undefined) here?
A: Its viability, T/C is 98.7% and 99.7%.

Q: What about the viability, T/C (compound 0.1 µM) of the same compound?
A: The viability, T/C was 98.2% and 97.2%.

Q: What about the viability, T/C (compound 0.316 µM) of the same compound?
A: The viability, T/C was 69.6% and 68.1%.

Q: And the viability, T/C (compound 1 µM)?
A: The viability, T/C was 34.2% and 28.7%.

Q: What about the viability, T/C (compound 3.16 µM) of the same compound?
A: The viability, T/C was 19% and 19.6%.

Q: What about the viability, T/C (compound 10 µM) of the same compound?
A: The viability, T/C was 13.1% and 12%.

Q: What about the IC50 (curve of compound) of the same compound?
A: The IC50 was 605 nM and 543 nM.

Q: How did the IC50 [1] turn out when `CCN(c1cc(-c2ccc(CN3CCOCC3)cc2)cc(C(=O)NCc2c(C)cc(C)[nH]c2=O)c1C)C1CCOCC1` + NC1CC1c1ccc(-c2cccc(O)c2)cc1 was run?
A: The IC50 was > 3000 nM.

Q: And the IC50 [2]?
A: Its IC50 is > 3000 nM.

Q: And the IC50 [3]?
A: Its IC50 is > 3000 nM.

Q: And the IC50 [4]?
A: The IC50 was > 3000 nM.

Q: And the IC50 [5]?
A: The IC50 was > 3000 nM.

Q: What about the viability, T/C [6] of the same compound?
A: Its viability, T/C is 98.8%.

Q: What about the viability, T/C [7] of the same compound?
A: The viability, T/C was 112%.

Q: What about the viability, T/C [8] of the same compound?
A: The viability, T/C was 98.9%.

Q: What about the viability, T/C [9] of the same compound?
A: Its viability, T/C is 95.1%.

Q: And the viability, T/C (second compound 0.1 µM, first compound 0.949 µM)?
A: The viability, T/C was 103%.

Q: What about the viability, T/C (second compound 0.1 µM, first compound 3 µM) of the same compound?
A: Its viability, T/C is 96.7%.

Q: What about the viability, T/C [10] of the same compound?
A: Its viability, T/C is 108%.

Q: What about the viability, T/C [11] of the same compound?
A: Its viability, T/C is 106%.

Q: And the viability, T/C [12]?
A: Its viability, T/C is 108%.

Q: And the viability, T/C [13]?
A: Its viability, T/C is 107%.

Q: And the viability, T/C (second compound 0.316 µM, first compound 0.949 µM)?
A: Its viability, T/C is 101%.

Q: And the viability, T/C (second compound 0.316 µM, first compound 3 µM)?
A: Its viability, T/C is 104%.

Q: What about the viability, T/C [14] of the same compound?
A: The viability, T/C was 100%.

Q: And the viability, T/C [15]?
A: Its viability, T/C is 107%.

Q: And the viability, T/C [16]?
A: Its viability, T/C is 97.6%.

Q: What about the viability, T/C [17] of the same compound?
A: Its viability, T/C is 94.7%.

Q: And the viability, T/C (second compound 1 µM, first compound 0.949 µM)?
A: Its viability, T/C is 98.4%.

Q: And the viability, T/C (second compound 1 µM, first compound 3 µM)?
A: The viability, T/C was 95.1%.

Q: And the viability, T/C [18]?
A: The viability, T/C was 94%.

Q: What about the viability, T/C [19] of the same compound?
A: Its viability, T/C is 92.6%.

Q: And the viability, T/C [20]?
A: The viability, T/C was 89%.

Q: And the viability, T/C [21]?
A: Its viability, T/C is 90.1%.

Q: What about the viability, T/C (second compound 3.16 µM, first compound 0.949 µM) of the same compound?
A: The viability, T/C was 93.8%.

Q: And the viability, T/C (second compound 3.16 µM, first compound 3 µM)?
A: Its viability, T/C is 100%.

Q: And the viability, T/C [22]?
A: Its viability, T/C is 96.6%.

Q: What about the viability, T/C [23] of the same compound?
A: Its viability, T/C is 97.2%.

Q: And the viability, T/C [24]?
A: The viability, T/C was 94.9%.

Q: What about the viability, T/C [25] of the same compound?
A: The viability, T/C was 93.1%.

Q: And the viability, T/C (second compound 10 µM, first compound 0.949 µM)?
A: Its viability, T/C is 90.6%.

Q: And the viability, T/C (second compound 10 µM, first compound 3 µM)?
A: Its viability, T/C is 91%.
